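Values below derive from 48-hour exposures of cells grown in 96-well plates, with endpoints linearly interpolated between the two concentrations bracketing the appropriate inhibition level. GI50 marks 50% less growth.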 The source made the active and inactive calls. Rule as the data show it: active = GI50 up to about 1.1 µM and inactive = higher.
Legend:
Assay in all cases: DTP human tumour cell line panel, 48 h
DU-145 = test system: DU-145
A498 = test system: A498
SF-539 = test system: SF-539
UO-31 = test system: UO-31
OVCAR-8 = test system: OVCAR-8
NCI-H226 = test system: NCI-H226
IGROV-1 = test system: IGROV-1
HOP-62 = test system: HOP-62
MDA-MB-231 = test system: MDA-MB-231
HCT-116 = test system: HCT-116
786-0 = test system: 786-0
U-251 = test system: U-251
SK-MEL-2 = test system: SK-MEL-2
RPMI-8226 = test system: RPMI-8226
EKVX = test system: EKVX
NCI-H23 = test system: NCI-H23
ACHN = test system: ACHN
SN12C = test system: SN12C
UACC-257 = test system: UACC-257
OVCAR-5 = test system: OVCAR-5

Compound | GI50 (DU-145) | GI50 (A498) | GI50 (SF-539) | GI50 (UO-31) | GI50 (OVCAR-8) | GI50 (NCI-H226) | GI50 (IGROV-1) | GI50 (HOP-62) | GI50 (MDA-MB-231) | GI50 (HCT-116) | GI50 (786-0) | GI50 (U-251) | GI50 (SK-MEL-2) | GI50 (RPMI-8226) | GI50 (EKVX) | GI50 (NCI-H23) | GI50 (ACHN) | GI50 (SN12C) | GI50 (UACC-257) | GI50 (OVCAR-5)
O=C(/C=C/c1ccc(O)c(O)c1)NC(COC(=O)/C=C/c1ccc(O)c(O)c1)C(=O)O (stereo not given) | > 100 µM (inactive) | > 100 µM (inactive) | > 100 µM (inactive) | > 100 µM (inactive) | > 100 µM (inactive) | > 100 µM (inactive) | > 100 µM (inactive) | > 100 µM (inactive) | > 100 µM (inactive) | > 100 µM (inactive) | > 100 µM (inactive) | > 100 µM (inactive) | > 100 µM (inactive) | > 100 µM (inactive) | > 100 µM (inactive) | > 100 µM (inactive) | > 100 µM (inactive) | > 100 µM (inactive) | > 100 µM (inactive) | > 100 µM (inactive)
Oc1ccccc1/C=N/c1nc2cc3sc(/N=C/c4ccccc4O)nc3cc2s1 | > 48.6 µM (inactive) | 26.3 µM (inactive) | > 85.5 µM (inactive) | > 35.9 µM (inactive) | > 100 µM (inactive) | 26.4 µM (inactive) | 60 µM (inactive) | > 80.4 µM (inactive) | > 100 µM (inactive) | 38.9 µM (inactive) | > 81.1 µM (inactive) | > 70.5 µM (inactive) | > 100 µM (inactive) | > 35.3 µM (inactive) | 51.4 µM (inactive) | 6.21 µM (inactive) | 46.3 µM (inactive) | > 60.5 µM (inactive) | > 100 µM (inactive) | > 64.7 µM (inactive)
COc1ccc(-c2cn3c(n2)sc2cc(C)ccc23)cc1 | 23.2 µM (inactive) | 21.3 µM (inactive) | 13.6 µM (inactive) | 42.3 µM (inactive) | 8.17 µM (inactive) | 15.2 µM (inactive) | 7.19 µM (inactive) | 20.2 µM (inactive) | 15.5 µM (inactive) | 13.2 µM (inactive) | 18.3 µM (inactive) | 4.13 µM (inactive) | 14.3 µM (inactive) | 3.93 µM (inactive) | 4.73 µM (inactive) | 9.29 µM (inactive) | 28.4 µM (inactive) | 23.7 µM (inactive) | 3.9 µM (inactive) | 43.2 µM (inactive)
Cc1nc2c(nc1C)-c1c(c3c(n1C)C(=O)CCC3)C(=O)C2=O | 0.592 µM (active) | 0.984 µM (active) | 1.22 µM (inactive) | 0.456 µM (active) | 0.236 µM (active) | 1.41 µM (inactive) | 0.337 µM (active) | 0.885 µM (active) | 0.264 µM (active) | 0.249 µM (active) | 1.39 µM (inactive) | 0.213 µM (active) | 0.571 µM (active) | 0.194 µM (active) | 1.06 µM (active) | 0.743 µM (active) | 0.476 µM (active) | 0.216 µM (active) | 1.4 µM (inactive) | 0.953 µM (active)
COC(=O)CCC1=NCC(C)(C)O1 | > 10 µM (inactive) | > 10 µM (inactive) | > 10 µM (inactive) | > 10 µM (inactive) | > 10 µM (inactive) | > 10 µM (inactive) | > 10 µM (inactive) | > 10 µM (inactive) | > 10 µM (inactive) | > 10 µM (inactive) | > 10 µM (inactive) | > 10 µM (inactive) | > 10 µM (inactive) | > 10 µM (inactive) | > 10 µM (inactive) | > 10 µM (inactive) | > 10 µM (inactive) | > 10 µM (inactive) | > 10 µM (inactive) | > 10 µM (inactive)
C=C(C)CCC1CCCCC(CN(C)C)C1=O (stereo not given) | > 100 µM (inactive) | > 100 µM (inactive) | > 100 µM (inactive) | > 100 µM (inactive) | > 100 µM (inactive) | > 100 µM (inactive) | > 100 µM (inactive) | > 100 µM (inactive) | > 100 µM (inactive) | > 100 µM (inactive) | > 100 µM (inactive) | > 100 µM (inactive) | > 100 µM (inactive) | > 100 µM (inactive) | > 100 µM (inactive) | > 100 µM (inactive) | > 100 µM (inactive) | > 100 µM (inactive) | > 100 µM (inactive) | > 100 µM (inactive)
C/C(=C\COc1ccc2ccc(=O)oc2c1)C1=CC(=O)C(C)(C)O1 [GEIPARVARIN] | 2.53 µM (inactive) | 4.6 µM (inactive) | 2.17 µM (inactive) | 6.11 µM (inactive) | 7.11 µM (inactive) | 3.32 µM (inactive) | 4.63 µM (inactive) | 5.47 µM (inactive) | 5.18 µM (inactive) | 2.22 µM (inactive) | 3.74 µM (inactive) | 4.3 µM (inactive) | 3.66 µM (inactive) | 2.04 µM (inactive) | 5.64 µM (inactive) | 3.29 µM (inactive) | 4.39 µM (inactive) | 3.94 µM (inactive) | 4.69 µM (inactive) | 10.2 µM (inactive)
CCN1C(=O)c2ccccc2C1(O)c1ccc(Cl)cc1 (stereo not given) | 80.2 µM (inactive) | > 100 µM (inactive) | > 100 µM (inactive) | 53.5 µM (inactive) | 52.8 µM (inactive) | 16.8 µM (inactive) | 29.1 µM (inactive) | 78 µM (inactive) | > 100 µM (inactive) | 37.7 µM (inactive) | 76.9 µM (inactive) | 64.9 µM (inactive) | 18.7 µM (inactive) | 61.9 µM (inactive) | 33.3 µM (inactive) | 38.2 µM (inactive) | 46.5 µM (inactive) | > 100 µM (inactive) | 75.5 µM (inactive) | 88.1 µM (inactive)
O=c1c2ccccc2nc(-c2ccccc2)n1O | > 100 µM (inactive) | > 100 µM (inactive) | > 100 µM (inactive) | 8.53 µM (inactive) | 51.5 µM (inactive) | 73.5 µM (inactive) | 56.8 µM (inactive) | 5.28 µM (inactive) | > 100 µM (inactive) | 55.8 µM (inactive) | > 100 µM (inactive) | > 100 µM (inactive) | > 100 µM (inactive) | 28.6 µM (inactive) | > 100 µM (inactive) | 71 µM (inactive) | > 100 µM (inactive) | > 100 µM (inactive) | > 100 µM (inactive) | > 100 µM (inactive)
CC1(C)CCC(=O)NC1CC(=O)CC1NC(=O)CCC1(C)C (stereo not given) | > 100 µM (inactive) | > 100 µM (inactive) | > 100 µM (inactive) | > 100 µM (inactive) | > 100 µM (inactive) | > 100 µM (inactive) | > 100 µM (inactive) | > 100 µM (inactive) | > 100 µM (inactive) | > 100 µM (inactive) | > 100 µM (inactive) | > 100 µM (inactive) | > 100 µM (inactive) | > 100 µM (inactive) | > 100 µM (inactive) | > 100 µM (inactive) | > 100 µM (inactive) | > 100 µM (inactive) | > 100 µM (inactive) | > 100 µM (inactive)
O=C(O)Cc1cccnc1 | > 100 µM (inactive) | > 100 µM (inactive) | > 100 µM (inactive) | > 100 µM (inactive) | > 100 µM (inactive) | > 100 µM (inactive) | > 100 µM (inactive) | > 100 µM (inactive) | > 100 µM (inactive) | > 100 µM (inactive) | > 100 µM (inactive) | > 100 µM (inactive) | > 100 µM (inactive) | > 100 µM (inactive) | > 100 µM (inactive) | > 100 µM (inactive) | > 100 µM (inactive) | > 100 µM (inactive) | > 100 µM (inactive) | > 100 µM (inactive)
CC1(C)CCCCCC(C)(CCCCCCCCCCCO)C1=O (stereo not given) | 17.7 µM (inactive) | 17.9 µM (inactive) | 16.7 µM (inactive) | 17 µM (inactive) | 16.9 µM (inactive) | 17.1 µM (inactive) | 18.2 µM (inactive) | 17.7 µM (inactive) | 16.3 µM (inactive) | 15.3 µM (inactive) | 16.2 µM (inactive) | 17 µM (inactive) | 16.2 µM (inactive) | 20.9 µM (inactive) | 17.6 µM (inactive) | 16.6 µM (inactive) | 12.8 µM (inactive) | 16.1 µM (inactive) | 14 µM (inactive) | 17.2 µM (inactive)
CC(=O)OC(C)C1C2=C(C(=O)CC1(C)O)C(=O)c1c(ccc(-c3ccc4c(c3O)C(=O)C3=C(C4=O)C(C(C)OC(C)=O)C(C)(O)CC3=O)c1O)C2=O (stereo not given) | 5.78 µM (inactive) | 2.86 µM (inactive) | 1.92 µM (inactive) | 3.35 µM (inactive) | 2.45 µM (inactive) | 9.33 µM (inactive) | 9.12 µM (inactive) | 18.5 µM (inactive) | 2.42 µM (inactive) | 0.521 µM (active) | 1.83 µM (inactive) | 1.72 µM (inactive) | 1.75 µM (inactive) | 0.483 µM (active) | 4.36 µM (inactive) | 1.47 µM (inactive) | 1.73 µM (inactive) | 2.82 µM (inactive) | 1.75 µM (inactive) | 5.97 µM (inactive)
Cn1c2ccccc2c2ccc3c(c21)C(=O)c1ccc2c4ccccc4n(C)c2c1C3=O | > 100 µM (inactive) | > 100 µM (inactive) | > 100 µM (inactive) | > 100 µM (inactive) | > 100 µM (inactive) | > 100 µM (inactive) | > 100 µM (inactive) | > 100 µM (inactive) | > 100 µM (inactive) | > 96.2 µM (inactive) | 99.1 µM (inactive) | > 100 µM (inactive) | > 100 µM (inactive) | > 100 µM (inactive) | > 100 µM (inactive) | > 100 µM (inactive) | > 100 µM (inactive) | > 100 µM (inactive) | > 100 µM (inactive) | > 100 µM (inactive)

Source: ChEMBL document CHEMBL1201862, “PubChem BioAssay data set” (2004)
